Experimental data: publication PMC5590943, “Pharmacological characterisation of S 47445, a novel positive allosteric modulator of AMPA receptors” (PLoS ONE, 2017)

Legend:
[1] = tested on: Adenylyl cyclase (stimulated); experiment: Enzyme and cell-based assay, ATP (0.5 mM) / forskolin (10 μM)
[2] = tested on: AMPA; experiment: Binding assay, [3H]AMPA, rat cerebral cortex membranes
[3] = set-up: method as in previous kinetic experiments (reference not given); settings: 0.3 mg/kg oral, rats; ref previous kinetic experiments (reference not given); read-out: Cerebral Cmax; cited from earlier work
[4] = tested on: Male Wistar rats; experiment: Functional observation battery in rats (Irwin); format: in vivo, rat
Description: Any effects on body temperature were also assessed. Methods were adapted from those described by Irwin, 1968 for detecting behavioural effects in mice.
Male Wistar rats (Depré breeding centre, France), 6 weeks of age (160.0–190.6 g) on the day of randomisation were used. On the day of the test, animals were first scored using the Irwin standardised observation battery, and the body temperature was measured to establish baseline measurements. Groups of rats were then orally treated with S 47445 (50, 200, 500 and 1000 mg/kg) or its vehicle or clonidine, a reference item (3 mg/kg in water). The Irwin scores as well as measurement of body temperature were performed again at 1, 2, 4, 6 and 24 hours after administration of S 47445. Individual observation data were presented as a score attributed to each behavioural sign (intensity and relevance). For observations with absence or presence, the number of animals with the sign was provided per group. For other observations, the median value for each sign per time was presented per group. For body temperature, data were expressed as variations from predose values. […] The treatment effect on body temperature was analysed using one way ANOVA followed by Newman-Keul’s post hoc test. […]

[5] = tested on: Guanylyl cyclase (stimulated); experiment: Enzyme and cell-based assay, GTP (0.1 mM) / SNP (10 μM)
[6] = target: A2A (h) (Homo sapiens, UniProt P29274); experiment: Binding assay, [3H]CGS 21680
[7] = tested on: Ca2+ channel (L, DHP site); experiment: Binding assay, [3H](+)PN 200-110
[8] = target: GluA1flop/GluA2flip (GluA1o/2i) AMPA receptors (Homo sapiens, UniProt P42261+P42262, Q607R); experiment: Whole cell patch clamp recordings in transiently transfected HEK-293 cells; settings: 0.1 μM S 47445
[9] = tested on: I1; experiment: Binding assay, [3H]clonidine (+ 10 μM RX821002)
[10] = tested on: recombinant human AMPA receptors (GluA1, GluA2 and GluA4 flip and flop variants); experiment: Glutamate-evoked currents, oocytes, across GluA recombinants; format: cell-based; settings: all tested subtypes except GluA4 flop; read-out: EC50 values among most GluA recombinants
Description: (§1) Compounds were tested by bath application.

[11] = tested on: Phospholipase A2; experiment: Enzyme and cell-based assay, [3H]phosphatidylethanolamine
[12] = tested on: K^+ATP channel; experiment: Binding assay, [3H]glibenclamide
[13] = tested on: NMDA receptors; experiment: NMDA-evoked currents, oocytes injected with rat cortex poly(A+) mRNA; settings: n = 3
[14] = tested on: rat primary cortical cell cultures; experiment: LDH release toxicity assay on rat primary cortical cell cultures; settings: S 47445 10 μM
[15] = tested on: GABA (non-selective); experiment: Binding assay, [3H]GABA
[16] = target: p38a kinase (h) (Homo sapiens, UniProt Q16539); experiment: Enzyme and cell-based assay, ATP + ATF-2 (0.1 μM)
[17] = tested on: α1 (non-selective); experiment: Binding assay, [3H]prazosin
[18] = tested on: Human AMPA receptors; experiment: AMPA-evoked currents, Xenopus laevis oocytes injected with human hippocampal poly(A+) mRNA; format: cell-based; settings: geometric mean
Description: as §1

GluA1flop/GluA2flip (GluA1o/2i) AMPA receptors, sequence (P42261 19-906): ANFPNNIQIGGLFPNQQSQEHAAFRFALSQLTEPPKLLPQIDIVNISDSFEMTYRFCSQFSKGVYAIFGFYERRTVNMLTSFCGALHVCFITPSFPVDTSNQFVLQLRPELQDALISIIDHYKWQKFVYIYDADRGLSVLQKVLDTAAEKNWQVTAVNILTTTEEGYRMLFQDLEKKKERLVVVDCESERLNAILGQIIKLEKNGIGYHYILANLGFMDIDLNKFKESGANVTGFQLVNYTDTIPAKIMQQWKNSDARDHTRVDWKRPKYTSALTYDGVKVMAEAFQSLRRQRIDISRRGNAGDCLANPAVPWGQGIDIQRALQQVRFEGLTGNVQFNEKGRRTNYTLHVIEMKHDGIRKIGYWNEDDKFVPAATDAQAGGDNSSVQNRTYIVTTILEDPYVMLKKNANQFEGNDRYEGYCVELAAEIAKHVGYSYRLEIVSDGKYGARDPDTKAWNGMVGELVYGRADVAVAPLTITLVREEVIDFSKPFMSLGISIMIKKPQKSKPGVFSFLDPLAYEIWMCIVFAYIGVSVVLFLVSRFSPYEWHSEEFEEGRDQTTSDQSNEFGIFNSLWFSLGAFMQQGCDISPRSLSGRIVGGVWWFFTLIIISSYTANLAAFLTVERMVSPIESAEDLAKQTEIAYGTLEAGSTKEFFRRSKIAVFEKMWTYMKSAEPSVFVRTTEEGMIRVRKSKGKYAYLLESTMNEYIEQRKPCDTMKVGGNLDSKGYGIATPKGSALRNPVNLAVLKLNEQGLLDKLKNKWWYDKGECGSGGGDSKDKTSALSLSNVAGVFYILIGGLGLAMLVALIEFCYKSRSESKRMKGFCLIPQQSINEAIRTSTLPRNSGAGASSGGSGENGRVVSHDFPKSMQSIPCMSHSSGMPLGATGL
GluA1flop/GluA2flip (GluA1o/2i) AMPA receptors, sequence (P42262 25-883 isoform P42262-2 Q607R): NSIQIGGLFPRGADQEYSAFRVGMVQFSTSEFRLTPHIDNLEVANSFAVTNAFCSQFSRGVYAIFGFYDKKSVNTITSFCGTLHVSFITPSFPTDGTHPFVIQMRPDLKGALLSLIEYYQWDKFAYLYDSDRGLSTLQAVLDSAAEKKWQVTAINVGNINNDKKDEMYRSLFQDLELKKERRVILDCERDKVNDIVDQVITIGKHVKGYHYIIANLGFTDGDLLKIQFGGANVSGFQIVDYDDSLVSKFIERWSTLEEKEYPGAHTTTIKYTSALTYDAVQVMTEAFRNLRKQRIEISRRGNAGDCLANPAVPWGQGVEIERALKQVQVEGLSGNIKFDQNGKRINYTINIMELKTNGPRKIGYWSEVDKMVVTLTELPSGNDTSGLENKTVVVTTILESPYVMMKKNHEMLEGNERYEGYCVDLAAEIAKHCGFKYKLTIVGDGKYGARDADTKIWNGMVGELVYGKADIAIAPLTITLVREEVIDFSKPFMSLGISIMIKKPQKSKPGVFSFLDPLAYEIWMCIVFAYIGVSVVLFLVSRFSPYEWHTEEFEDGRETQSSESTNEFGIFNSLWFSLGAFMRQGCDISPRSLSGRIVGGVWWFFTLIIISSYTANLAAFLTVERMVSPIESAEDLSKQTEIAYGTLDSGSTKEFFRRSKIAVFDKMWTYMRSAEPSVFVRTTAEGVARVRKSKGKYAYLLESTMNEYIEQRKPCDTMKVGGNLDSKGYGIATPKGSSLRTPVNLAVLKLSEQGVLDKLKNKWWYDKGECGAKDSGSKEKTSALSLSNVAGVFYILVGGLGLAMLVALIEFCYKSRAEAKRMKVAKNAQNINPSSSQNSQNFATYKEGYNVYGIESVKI
p38a kinase (h), sequence (Q16539 whole entry): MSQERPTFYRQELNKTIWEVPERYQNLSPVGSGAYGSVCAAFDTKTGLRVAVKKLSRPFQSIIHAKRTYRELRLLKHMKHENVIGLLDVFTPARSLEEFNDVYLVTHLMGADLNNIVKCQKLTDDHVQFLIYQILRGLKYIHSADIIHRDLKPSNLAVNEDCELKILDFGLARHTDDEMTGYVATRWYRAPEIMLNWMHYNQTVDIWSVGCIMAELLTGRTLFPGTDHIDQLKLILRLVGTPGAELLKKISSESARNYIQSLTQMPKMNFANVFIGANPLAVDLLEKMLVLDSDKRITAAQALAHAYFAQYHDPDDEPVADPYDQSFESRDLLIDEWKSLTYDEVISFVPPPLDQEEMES
A2A (h), sequence (P29274 whole entry): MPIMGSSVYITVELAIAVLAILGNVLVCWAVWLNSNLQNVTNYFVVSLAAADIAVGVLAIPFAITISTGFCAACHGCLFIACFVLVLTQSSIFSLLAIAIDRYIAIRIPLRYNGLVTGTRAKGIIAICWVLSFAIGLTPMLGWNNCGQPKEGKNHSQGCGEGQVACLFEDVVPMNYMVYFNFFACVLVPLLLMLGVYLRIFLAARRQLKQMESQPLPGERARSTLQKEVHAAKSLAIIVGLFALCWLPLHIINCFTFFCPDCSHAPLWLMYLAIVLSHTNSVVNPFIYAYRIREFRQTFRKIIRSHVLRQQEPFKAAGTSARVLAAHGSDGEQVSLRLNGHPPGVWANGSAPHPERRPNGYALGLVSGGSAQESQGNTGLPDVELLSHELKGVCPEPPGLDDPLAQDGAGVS

O=C1c2cc3nnn(CCc4cccc(F)c4)c(=O)c3cc2OCN1C1CC1 [S 47445, 8-cyclopropyl-3-[2-(3-fluorophenyl)ethyl]-7,8-dihydro-3H-[1,3]oxazino[6,5-g][1,2,3]benzotriazine-4,9-dione]
% Inhibition of control specific binding ([1]; S 47445 1.0E-05 M): -21% | % Inhibition of control specific binding ([1]; S 47445 1.0E-07 M): 6% | % Inhibition of control specific binding ([2]; S 47445 1.0E-05 M): -8% | % Inhibition of control specific binding ([2]; S 47445 1.0E-07 M): 1% | Ki ([2]; read-out: Ki, glutamate binding site, n = 2): > 10 µM | Cmax [3]: 100 to 200 nM | Body temperature and behavior ([4]; 50, 200, 500 and 1000 mg/kg oral acute): no significant effect | Spontaneous epileptic seizures ([4]; up to 1000 mg/kg p.o.): No occurrence | % Inhibition of control specific binding ([5]; S 47445 1.0E-05 M): 7% | % Inhibition of control specific binding ([5]; S 47445 1.0E-07 M): -14% | % Inhibition of control specific binding ([6]; S 47445 1.0E-05 M): 9% | % Inhibition of control specific binding ([6]; S 47445 1.0E-07 M): -8% | % Inhibition of control specific binding ([7]; S 47445 1.0E-05 M): 1% | % Inhibition of control specific binding ([7]; S 47445 1.0E-07 M): -16% | Leftward shift in the EC50 of glutamate [8]: about 16 fold | Amplitude of the glutamate response in presence of S 47445 ([8]; control 94.7 ± 32.8 pA): 247 ± 70 pA | % Inhibition of control specific binding ([9]; S 47445 1.0E-05 M): 21% | % Inhibition of control specific binding ([9]; S 47445 1.0E-07 M): 10% | EC50 [10]: 2.5 to 5.4 µM | % Inhibition of control specific binding ([11]; S 47445 1.0E-05 M): -4% | % Inhibition of control specific binding ([11]; S 47445 1.0E-07 M): 0% | % Inhibition of control specific binding ([12]; S 47445 1.0E-05 M): 0% | % Inhibition of control specific binding ([12]; S 47445 1.0E-07 M): 6% | Effect at NMDA-evoked currents [13]: absence of effect | Reduction of glutamate-induced LDH activity ([14]; glutamate 50 μM): 32.2% | Reduction of glutamate-induced LDH activity ([14]; glutamate 75 μM): 50.9% | Reduction of glutamate-induced LDH activity ([14]; glutamate 100 μM): 49.0% | % Inhibition of control specific binding ([15]; S 47445 1.0E-05 M): 7% | % Inhibition of control specific binding ([15]; S 47445 1.0E-07 M): 4% | % Inhibition of control specific binding ([16]; S 47445 1.0E-05 M): 4% | % Inhibition of control specific binding ([16]; S 47445 1.0E-07 M): 2% | % Inhibition of control specific binding ([17]; S 47445 1.0E-05 M): 1% | % Inhibition of control specific binding ([17]; S 47445 1.0E-07 M): -5% | EC2X ([18]; concentration giving a two-fold increase in current amplitude): 4.77 µM | EC50 ([18]; potentiation of 10 μM AMPA-evoked current): 7.08 µM
